Measured values published in patent US11407738B2 (Achillion Pharmaceuticals, Inc., priority 2015, dated 2022).

These molecules were tested against Human Factor D (Homo sapiens (Human), UniProt P00746) (assay: Human Factor D assay). Conditions: Table 3; Factor D inhibition, substrate Z-L-Lys-SBzl.
Chain of Human Factor D (P00746 26-253): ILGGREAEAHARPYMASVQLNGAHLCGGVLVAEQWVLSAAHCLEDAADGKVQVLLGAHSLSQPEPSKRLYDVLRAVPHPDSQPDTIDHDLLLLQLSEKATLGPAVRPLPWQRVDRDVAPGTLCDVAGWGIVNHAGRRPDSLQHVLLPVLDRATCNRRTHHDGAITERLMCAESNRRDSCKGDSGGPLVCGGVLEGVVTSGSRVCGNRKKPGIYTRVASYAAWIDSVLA
Type: biochemical
Description: Human Factor D (purified from human serum, Complement Technology, Inc.) at 80 nM final concentration is incubated with test compound at various concentrations for 5 min at room temperature in 50 mM Tris, 1M NaCl, pH 7.5. A synthetic substrate Z-L-Lys-SBzl and DTNB (Ellman's reagent) are added to final concentrations of 100 μM each. […] IC50 values are calculated by nonlinear regression of complement Factor D reaction rates as a function of test compound concentration.
With CO[C@@H]1CO[C@H]2[C@@H]1OC[C@H]2Oc1ncc(-c2ccc3c(c2)c(C(C)=O)cn3CC(=O)N2C[C@H](F)C[C@H]2C(=O)Nc2cccc(-c3ccccc3Cl)c2F)cn1 [Compound 503, (2S,4R)-1-(2-(3-Acetyl-5-(2-((3R,3aR,6R,6aR)-6-methoxyhexahydrofuro[3,2-b]furan-3-yloxy)pyrimidin-5-yl)-1H-indol-1-yl)acetyl)-N-(2′-chloro-2-fluorobiphenyl-3-yl)-4-fluoropyrrolidine-2-carboxamide] the IC50 was less than 1 µM.
For CC(=O)c1cn(CC(=O)N2C[C@H](F)C[C@H]2C(=O)Nc2cccc(-c3ccccc3Cl)c2F)c2ccc(-c3cnc(O[C@@H]4CO[C@H]5[C@@H]4OC[C@H]5O)nc3)cc12 [Compound 501, (2S,4R)-1-(2-(3-Acetyl-5-(2-((3R,3aR,6R,6aR)-6-hydroxyhexahydrofuro[3,2-b]furan-3-yloxy)pyrimidin-5-yl)-1H-indol-1-yl)acetyl)-N-(2′-chloro-2-fluorobiphenyl-3-yl)-4-fluoropyrrolidine-2-carboxamide], the IC50 was less than 1 µM.
For CC(=O)c1nn(CC(=O)N2C[C@H](F)C[C@H]2C(=O)Nc2cccc(-c3ccc4c(c3)OC(F)(F)O4)c2F)c2ccc(-c3cnc(C)nc3)cc12 [Compound 528, (2S,4R)-1-(2-(3-Acetyl-5-(2-methylpyrimidin-5-yl)-1H-indazol-1-yl)acetyl)-N-(3-(2,2-difluorobenzo[d][1,3]dioxol-5-yl)-2-fluorophenyl)-4-fluoropyrrolidine-2-carboxamide], the IC50 was less than 1 µM.
In the case of CC(=O)c1nn(CC(=O)N2CCC[C@@H]2CC(=O)O)c2ccc(-c3cnc(C)nc3)cc12 [Compound 510, (R)-2-(1-(2-(3-acetyl-5-(2-methylpyrimidin-5-yl)-1H-indazol-1-yl)acetyl)pyrrolidin-2-yl)acetic acid], the IC50 is reported as greater than 10 µM.
CC(=O)c1nn(CC(=O)N2C[C@H](F)C[C@H]2C(=O)Nc2cccc(S(F)(F)(F)(F)F)c2)c2ccc(-c3cnc(C)nc3)cc12 [Compound 504, (2S,4R)-1-(2-(3-Acetyl-5-(2-methylpyrimidin-5-yl)-1H-indazol-1-yl)acetyl)-4-fluoro-N-(3-(pentafluoro-λ^6-sulfanyl)phenyl)pyrrolidine-2-carboxamide] gave an IC50 of less than 1 µM.
For CC(=O)c1cn(CC(=O)N(C)[C@H](C(=O)Nc2cccc(-c3ccccc3Cl)c2F)[C@@H](C)O)c2ccc(-c3cnc(C)nc3)cc12 [Compound 506, (2S,3R)-2-(2-(3-Acetyl-5-(2-methylpyrimidin-5-yl)-1H-indol-1-yl)-N-methylacetamido)-N-(2′-chloro-2-fluorobiphenyl-3-yl)-3-hydroxybutanamide], the IC50 was 1 to 10 µM.

Same assay, conditions: Table 4; Factor D inhibition, substrate Z-L-Lys-SBzl
CCOP(=O)(OCC)OC[C@@]12C[C@@H]1N(C(=O)Cn1nc(C(C)=O)c3cc(-c4cnc(C)nc4)ccc31)[C@H](C(=O)Nc1cccc(Br)n1)C2 [Compound 581, ((1S,3S,5R)-2-(2-(3-Acetyl-5-(2-methylpyrimidin-5-yl)-1H-indazol-1-yl)acetyl)-3-(6-bromopyridin-2-ylcarbamoyl)-2-azabicyclo[3.1.0]hexan-5-yl)methyl Diethyl Phosphate] showed an IC50 of 1 to 10 µM.
For COC(=O)Cc1ccccc1CNC(=O)Cn1nc(C(C)=O)c2cc(-c3cnc(C)nc3)ccc21 [Compound 537, methyl 2-(2-((2-(3-acetyl-5-(2-methylpyrimidin-5-yl)-1H-indazol-1-yl)acetamido)meth-yl)phenyl)acetate], the IC50 was greater than 10 µM.
For Cc1cccc(NC(=O)[C@@H]2CCC(F)CCN2C(=O)Cn2cc(C(N)=O)c3cc(-c4cnn5c4CCC5)ccc32)n1 (stereo partly drawn) [Compound 617, 5-(5,6-Dihydro-4H-pyrrolo[1,2-b]pyrazol-3-yl)-1-(2-((2S)-5-fluoro-2-((6-methylpyridin-2-yl)carbamoyl)azepan-1-yl)-2-oxoethyl)-1H-indole-3-carboxamide], the IC50 was greater than 10 µM.
CC(=O)c1nn(CC(=O)N2C[C@H](F)C[C@H]2C(=O)Nc2cccc(-c3ccc4scnc4c3)c2F)c2ccc(-c3cnc4cc(C)nn4c3)cc12 [Compound 639, (2S,4R)-1-(2-(3-acetyl-5-(4-methylpyrazolo[1,5-a]pyrimidin-6-yl)-1H-indazol-1-yl)acetyl)-N-(3-(benzo[d]thiazol-5-yl)-2-fluorophenyl)-4-fluoropyrrolidine-2-carboxamide] was tested, and the IC50 was less than 1 µM.
Cc1cccc(C[C@@H](O)[C@H]2C[C@@H](F)CN2C(=O)Cn2cc(C(N)=O)c3cc(-c4cnc5cc(C)nn5c4)ccc32)n1 [Compound 611, 1-(2-((2R,4R)-4-Fluoro-2-((R)-1-hydroxy-2-(6-methylpyridin-2-yl)ethyl)pyrrolidin-1-yl)-2-oxoethyl)-5-(2-methylpyrazolo [1,5-a]pyrimidin-6-yl)-1H-indole-3-carboxamide] showed an IC50 greater than 10 µM.
In the case of Cc1cccc(NC(=O)[C@@H]2CC=CCN2C(=O)Cn2cc(C(N)=O)c3cc(-c4cnc(C)nc4)ccc32)n1 [Compound 566, (S)-1-(2-(2-((6-Methylpyridin-2-yl)carbamoyl)-3,6-dihydropyridin-(2H)-yl)-2-oxoethyl)-5-(2-methylpyrimidin-5-yl)-1H-indole-3-carboxamide], the IC50 is reported as greater than 10 µM.
Molecule C=CCCCCCCCCCNc1ncc(-c2ccc3c(c2)c(C(C)=O)nn3CC(=O)O)cn1 [Compound 535, 2-(3-acetyl-5-(2-(undec-10-en-1-ylamino)pyrimidin-5-yl)-1H-indazol-1-yl)acetic acid] has an IC50 greater than 10 µM.
CC(=O)c1nn(CC(=O)N2C[C@H](F)C[C@H]2C(=O)Nc2nc(Br)ccc2C)c2ccc(-c3cnc(N)nc3)cc12 [Compound 553, (2S,4R)-1-(2-(3-acetyl-5-(2-aminopyrimidin-5-yl)-1H-indazol-1-yl)acetyl)-N-(6-bromo-3-methylpyridin-2-yl)-4-fluoropyrrolidine-2-carboxamide] showed an IC50 of less than 1 µM.
Cc1ncc(-c2ccc3c(c2)c(C(C)O)nn3CC(=O)N2C[C@H](F)C[C@H]2C(=O)O)cn1 (stereo partly drawn) [Compound 631, (2S,4R)-4-Fluoro-1-(2-(3-(1-hydroxyethyl)-5-(2-methylpyrimidin-5-yl)-11-indazol-1-yl)acetyl)pyrrolidine-2-carboxylic Acid] gave an IC50 greater than 10 µM.
Work on Cc1cccc(NC(=O)[C@@H]2CCC(F)CCN2C(=O)Cn2cc(C(N)=O)c3cc(-c4ccc5ccccc5c4)ccc32)n1 (stereo partly drawn) [Compound 594, 1-(2-((2S)-5-Fluoro-2-((6-methylpyridin-2-yl)carbamoyl)azepan-1-yl)-2-oxoethyl)-5-(naphthaalen-2-yl)-1H-indole-3-carboxamide] yielded an IC50 greater than 10 µM.
Work on COCCN(C)CCN1CC(NC(=O)[C@@H]2C[C@@H](F)CN2C(=O)Cn2nc(C(C)=O)c3cc(-c4cnc(C)nc4)ccc32)CC1=O (stereo partly drawn) [Compound 533, (2S,4R)-1-(2-(3-acetyl-5-(2-methylpyrimidin-5-yl)-1H-indazol-1-yl)acetyl)-4-fluoro-N-(1-(2-((2-methoxyethyl)(meth-yl)amino)ethyl)-5-oxopyrrolidine-3-yl)pyrrolidine-2-carboxamide] yielded an IC50 greater than 10 µM.
With CC(=O)c1nn(CC(=O)N2C[C@H](F)C[C@@H]2c2nnc(-c3cccc(Cl)c3F)[nH]2)c2ccc(-c3cnc(C)nc3)cc12 [Compound 572, 2-(3-acetyl-5-(2-methylpyrimidin-5-yl)-1H-indazol-1-yl)-1-((2R,4R)-2-(5-(3-chloro-2-fluorophenyl)-4H-1,2,4-triazol-3-yl)-4-fluoropyrrolidin-1-yl)ethan-1-one] the IC50 was greater than 10 µM.
Molecule CC(=O)c1nn(CC(=O)N2C[C@H](F)C[C@H]2CC(=O)NO)c2ccc(-c3cnc(C)nc3)cc12 [Compound 592, 2-((2R,4R)-1-(2-(3-Acetyl-5-(2-methylpyrimidin-5-yl)-1H-indazol-1-yl)acetyl)-4-fluoropyrrolidin-2-yl)-N-hydroxyacetamide] has an IC50 greater than 10 µM.
Work on Cc1cccc(NC(=O)[C@@H]2CCC(F)CCN2C(=O)Cn2cc(C(N)=O)c3cc(-c4cccc(C#N)c4)ccc32)n1 (stereo partly drawn) [Compound 591, 5-(3-Cyanophenyl)-1-(2-((2S)-5-fluoro-2-(6-methylpyridin-2-ylcarbamoyl)azepan-1-yl)-2-oxoethyl)-1H-indole-3-carboxamide] yielded an IC50 greater than 10 µM.
With CC(=O)c1nn2c3ccc(cc13)-c1cnc(nc1)NCCCCCCCCCCCc1cc(Cl)c(F)c(c1)CNC(=O)[C@@H]1C[C@@H](F)CN1C(=O)C2 [Compound 541] the IC50 was greater than 10 µM.
Molecule CC(=O)c1nn(CC(=O)N2C[C@H](F)C[C@@H]2c2nc3nc(Br)ccc3[nH]2)c2ccc(-c3cnc(C)nc3)cc12 [Compound 565, 2-(3-Acetyl-5-(2-methylpyrimidin-5-yl)-1H-indazol-1-yl)-1-((2R,4R)-2-(5-bromo-1H-imidazo[4,5-b]pyridin-2-yl)-4-fluoropyrrolidin-1-yl)ethan-1-one] has an IC50 greater than 10 µM.
CC(=O)c1nn(CC(=O)N2C[C@H](F)C[C@H]2c2nnc(CCCC(F)(F)F)[nH]2)c2ccc(-c3cnc(C)nc3)cc12 [Compound 584, 2-(3-Acetyl-5-(2-methylpyrimidin-5-yl)-1H-indazol-1-yl)-1-((2S,4R)-4-fluoro-2-(5-(4,4,4-trifluorobutyl)-4H-1,2,4-triazol-3-yl)pyrrolidin-1-yl)ethan-1-one] showed an IC50 of 1 to 10 µM.
Molecule Cc1ccc(-c2ccc3c(c2)c(C(N)=O)cn3CC(=O)N2CCC(F)CC[C@H]2C(=O)Nc2cccc(C)n2)cn1 (stereo partly drawn) [Compound 586, 1-(2-((2S)-5-Fluoro-2-((6-methylpyridin-2-yl)carbamoyl)azepan-1-yl)-2-oxoethyl)-5-(6-methylpyridin-3-yl)-1H-indole-3-carboxamide] has an IC50 greater than 10 µM.
Work on COc1ccc(-c2ccc3c(c2)c(C(N)=O)cn3CC(=O)N2CCC(F)CC[C@H]2C(=O)Nc2cccc(C)n2)cn1 (stereo partly drawn) [Compound 596, 1-(2-((2S)-5-Fluoro-2-((6-methylpyridin-2-yl)carbamoyl)azepan-1-yl)-2-oxoethyl)-5-(6-methoxypyridin-3-yl)-1H-indole-3-carboxamide] yielded an IC50 greater than 10 µM.
